26 molecules from ChEMBL document CHEMBL1201862, “PubChem BioAssay data set” (2004) can be followed below.

Assay in all cases: inhibition of tumour cell growth, NCI panel, 48 h
Test [1] concerns XF498.
Test [2] has as its system KM-20L2.
Test [3] relates to HOP-18.
For test [4], the system named is DMS-273.
Test [5] concerns LXFL 529.
Test [6] deals with DLD-1.
The subject of test [7] is DMS-114.
Test [8] deals with RXF 631.
In test [9] the test system is M19-MEL.

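Five concentrations, 48 hours, 96-well plates. The concentration for 50% growth inhibition is given as GI50.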 Calls of active or inactive are those of the source. Rule as the data show it: active = GI50 up to about 1.1 µM and inactive = higher. Some results are limits rather than exact numbers.

As to `CC1(C)OB(O)OC1(C)C`, the GI50 in test [1], in test [2], in test [3], in [4], in test [5] and in test [6] was > 100 µM (inactive) throughout. Also, the GI50 in [7] was > 100 µM (inactive).

Regarding `O=C(O)/C(Cl)=C(\Cl)C(=O)NC1C2CC3CC(C2)CC1C3` (centres undefined), the GI50 in test [1] is > 100 µM (inactive); in test [2] it was > 100 µM (inactive); in test [3], > 100 µM (inactive); in test [4], > 100 µM (inactive); in [8], 61 µM (inactive); in [5], > 100 µM (inactive). The GI50 in test [6], in test [9] and in test [7] was > 100 µM (inactive) in each case.

Consider `C/C(=C\CC/C=C(\C)CC/C=C(\C)CCC1SC1(C)C)CC/C=C(\C)CCC1OC1(C)C` (centres undefined), for which the GI50 in test [1], in test [2], in test [3], in [4], in test [5] and in test [6] was > 100 µM (inactive) each time. Besides, the figures for the GI50 in test [9] and in [7] were 71.4 µM (inactive) and 65.6 µM (inactive), respectively.

Regarding `CNC(=S)NC1CCCCC1NC(=S)NC` (centres undefined), the GI50 in test [1], in test [2], in [3], in test [4], in test [8] and in test [5] was > 100 µM (inactive) throughout. For the same molecule, the GI50 in test [6], in test [9] and in [7] was > 100 µM (inactive) throughout.

Turning to `O=C(N/C(=C\c1cccc([N+](=O)[O-])c1)c1nc2ccccc2[nH]1)c1ccccc1`, the GI50 in [1] was 27.7 µM (inactive); in test [2], 43.8 µM (inactive); in [4], 69.2 µM (inactive); in test [5], 26.1 µM (inactive); in [6] it was 55.5 µM (inactive); in [9], 62.8 µM (inactive). In [7], the GI50 was 26.7 µM (inactive).

As for `CC(C)c1ccc(C2NC(S)=NC3=C2c2ccccc2C3=O)cc1` (centres undefined), the GI50 in test [1] is 32.4 µM (inactive); in test [2], 25.6 µM (inactive); in [4], 30 µM (inactive); in test [8], 54 µM (inactive); in test [5] it was 38.3 µM (inactive); in test [6], 48.5 µM (inactive). Moreover, the GI50 in test [9] was 38.9 µM (inactive); in test [7], 21.3 µM (inactive).

`C1CCNCC1.S=C(S)N1CCCCC1`: the GI50 in test [2] was 100 µM (inactive); in test [3], 100 µM (inactive); in test [8] it was 4.43 µM (inactive); in [9], 0.685 µM (active); in [7] it was 0.24 µM (active).

Turning to `CC12CC3C(CC1SCC(=O)O2)C3(C)C` (centres undefined), the GI50 in [1], in [3], in test [4], in test [5], in test [6] and in [9] was > 100 µM (inactive) each time. In addition, the GI50 in [7] is > 100 µM (inactive).

On to `CC(C)C(/C=C/c1ccc(Br)cc1)=N\NC(N)=O`, for which the GI50 was > 100 µM (inactive) in test [1]; > 100 µM (inactive) in test [2]; > 100 µM (inactive) in [4]; 56.4 µM (inactive) in test [5]; > 100 µM (inactive) in [6]; 12.2 µM (inactive) in test [9]. In addition, the GI50 in [7] was > 100 µM (inactive).

Regarding `COC(=O)c1nc(-c2ccc(Cl)c(Cl)c2)nc2ccc(Cl)cc12`, the GI50 in test [2] was 21 µM (inactive); in test [4], 81.1 µM (inactive); in [5], > 100 µM (inactive); in test [6], > 100 µM (inactive); in test [9] it was > 100 µM (inactive); in test [7] it was 13.8 µM (inactive).

As to `Cc1cn(C2CC(OC3CCCCO3)C(CO)O2)c(=O)[nH]c1=O` (centres undefined), the GI50 in [1], in test [2], in test [3], in test [4], in [5] and in [6] was > 100 µM (inactive) in each case. Further, in [9], the GI50 is > 100 µM (inactive).

Turning to `CC(=O)OC12c3ccccc3C1CCCCCC21OCCCO1` (centres undefined), the GI50 in test [2], in test [4], in test [5], in test [6], in test [9] and in test [7] was > 100 µM (inactive) each time.

For `CCCC(=O)OCC(O)CO` (centres undefined), the GI50 in [3] is 1730 µM (inactive); in test [4] it was 4040 µM (inactive); in [5], > 5000 µM (inactive); in [6], > 5000 µM (inactive); in [9], > 5000 µM (inactive); in test [7] it was > 5000 µM (inactive).

Regarding `Cc1cc(C)nc(NS(=O)(=O)c2ccc(NC(=O)c3cccc4c(Nc5ccc(S(=O)(=O)N=C(N)N)cc5)c5ccccc5nc34)cc2)n1`, the GI50 in [1] was > 100 µM (inactive); in test [2] it was 34.2 µM (inactive); in test [3] it was > 100 µM (inactive); in test [4], 19.7 µM (inactive); in test [8], 27.3 µM (inactive); in test [5], 3.88 µM (inactive). In addition, the GI50 is 7.62 µM (inactive) in [6] and 22.1 µM (inactive) in [9].

As to `CCOc1ccc(C2=NN(CC)C(=O)C(C3C(=O)N(c4ccccc4)N=C3C)C2)cc1` (centres undefined), the GI50 in [1], in test [2], in [3], in test [4], in [5] and in test [6] was > 100 µM (inactive) throughout. Also, the GI50 in test [9] and in test [7] was > 100 µM (inactive) each time.

On to `CC(C)(C)NC(=O)NC12CC3CC(CC(F)(C3)C1)C2`, for which the GI50 in test [1], in [2], in [4], in test [8], in test [5] and in test [6] was > 100 µM (inactive) each time. For the same molecule, the GI50 in test [9] and in test [7] was > 100 µM (inactive) throughout.

Take `CN(C)CC1CCC/C1=N\O` (centres undefined): the GI50 in [2], in test [3], in test [4], in test [5], in test [6] and in test [9] was > 100 µM (inactive) throughout.

`CC(CC(=O)N1C(=O)C(C)(C)[C@@H](O)[C@H]1CC(C)C(Cl)(Cl)Cl)C(Cl)(Cl)Cl` (some centres undefined): the GI50 in test [1], in [2], in test [3], in test [4], in test [5] and in [6] was > 100 µM (inactive) throughout. The GI50 in [9] and in test [7] was > 100 µM (inactive) throughout.

With `COC(=O)C1=C(c2cc(OC)c(OC)c(OC)c2)OC(c2ccc3c(c2)OCO3)C1` (centres undefined), the GI50 in test [2] is 19.7 µM (inactive); in test [3], > 100 µM (inactive); in [4], 25.4 µM (inactive); in [5], 25.3 µM (inactive); in test [6], 23 µM (inactive); in test [9], 21.1 µM (inactive). For the same molecule, in [7], the GI50 is 13.9 µM (inactive).

As to `O=C(CCc1n[nH]c(=S)o1)Nc1cc(Cl)ccc1Cl`, the GI50 in [2] is 48.2 µM (inactive); in test [3], > 100 µM (inactive); in [4] it was 19.1 µM (inactive); in test [5], 76.4 µM (inactive); in test [6], 79.3 µM (inactive); in test [9], > 100 µM (inactive).

Consider `C[Si](C)(C)/C=C\CCO`, for which the GI50 in test [1], in [2], in test [3], in test [4], in test [8] and in test [5] was > 100 µM (inactive) in each case. The GI50 in test [6], in test [9] and in test [7] was > 100 µM (inactive) throughout.

As to `c1ccc(C2(c3ccccc3)SSC3(S2)C2CC4CC(C2)CC3C4)cc1` (centres undefined), the GI50 in test [2], in [5], in test [6] and in test [7] was > 100 µM (inactive) each time.

For the molecule `N#CC(C(=O)/C(=N\NC(N)=O)C(C#N)c1ccc(Cl)cc1)c1ccc(Cl)cc1` (centres undefined), the GI50 in [1], in test [2], in test [3], in test [8], in [5] and in test [6] was > 100 µM (inactive) in each case. Further, the GI50 in test [9] and in test [7] was > 100 µM (inactive) throughout.

On to `CCc1cccc(C)c1N1C(=O)C(=O)C(c2nc3ccccc3o2)/C(=N/NC(=S)NN)C1=O` (centres undefined), for which the GI50 in test [1], in [2], in test [4], in [8], in [5] and in [6] was > 100 µM (inactive) in each case. Besides, the GI50 in test [9] and in test [7] was > 100 µM (inactive) throughout.

On to `Nc1ncnc2c1ncn2CCOC(c1ccccc1)P(=O)(O)O` (centres undefined), for which the GI50 in test [2], in [4], in [5], in [6] and in [9] was > 100 µM (inactive) throughout.

Take `COc1ccc2c(c1[N+](=O)[O-])CC[C@@H]1[C@@H]2CC[C@]2(C)C(=O)CC[C@@H]12`: the GI50 was 20.4 µM (inactive) in [1]; > 25 µM (inactive) in test [2]; > 25 µM (inactive) in [3]; > 25 µM (inactive) in test [4]; > 25 µM (inactive) in test [6]; > 25 µM (inactive) in test [9]. Also, in test [7], the GI50 was 18.4 µM (inactive).
